Source: patent US20140179681A1, “METHODS AND COMPOSITIONS OF TARGETED DRUG DEVELOPMENT” (priority 2010, published 2014)
“And” between values parts separate entries of the source, which are not always exact repeats. Identical values can stand only once. Like-named read-outs stand apart in the source and are kept apart here.

How the values were obtained:
EGFR = biological target: T1, EGFR (Homo sapiens, UniProt P00533); test: EGFR in-cell Western (ICW) screening protocol (EGFR inhibition assay); format: cell-based;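 also: compound at 125 µM in assay in A431 cells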
T1 construct: host or cells: A431
T1 sequence (P00533 25-1210): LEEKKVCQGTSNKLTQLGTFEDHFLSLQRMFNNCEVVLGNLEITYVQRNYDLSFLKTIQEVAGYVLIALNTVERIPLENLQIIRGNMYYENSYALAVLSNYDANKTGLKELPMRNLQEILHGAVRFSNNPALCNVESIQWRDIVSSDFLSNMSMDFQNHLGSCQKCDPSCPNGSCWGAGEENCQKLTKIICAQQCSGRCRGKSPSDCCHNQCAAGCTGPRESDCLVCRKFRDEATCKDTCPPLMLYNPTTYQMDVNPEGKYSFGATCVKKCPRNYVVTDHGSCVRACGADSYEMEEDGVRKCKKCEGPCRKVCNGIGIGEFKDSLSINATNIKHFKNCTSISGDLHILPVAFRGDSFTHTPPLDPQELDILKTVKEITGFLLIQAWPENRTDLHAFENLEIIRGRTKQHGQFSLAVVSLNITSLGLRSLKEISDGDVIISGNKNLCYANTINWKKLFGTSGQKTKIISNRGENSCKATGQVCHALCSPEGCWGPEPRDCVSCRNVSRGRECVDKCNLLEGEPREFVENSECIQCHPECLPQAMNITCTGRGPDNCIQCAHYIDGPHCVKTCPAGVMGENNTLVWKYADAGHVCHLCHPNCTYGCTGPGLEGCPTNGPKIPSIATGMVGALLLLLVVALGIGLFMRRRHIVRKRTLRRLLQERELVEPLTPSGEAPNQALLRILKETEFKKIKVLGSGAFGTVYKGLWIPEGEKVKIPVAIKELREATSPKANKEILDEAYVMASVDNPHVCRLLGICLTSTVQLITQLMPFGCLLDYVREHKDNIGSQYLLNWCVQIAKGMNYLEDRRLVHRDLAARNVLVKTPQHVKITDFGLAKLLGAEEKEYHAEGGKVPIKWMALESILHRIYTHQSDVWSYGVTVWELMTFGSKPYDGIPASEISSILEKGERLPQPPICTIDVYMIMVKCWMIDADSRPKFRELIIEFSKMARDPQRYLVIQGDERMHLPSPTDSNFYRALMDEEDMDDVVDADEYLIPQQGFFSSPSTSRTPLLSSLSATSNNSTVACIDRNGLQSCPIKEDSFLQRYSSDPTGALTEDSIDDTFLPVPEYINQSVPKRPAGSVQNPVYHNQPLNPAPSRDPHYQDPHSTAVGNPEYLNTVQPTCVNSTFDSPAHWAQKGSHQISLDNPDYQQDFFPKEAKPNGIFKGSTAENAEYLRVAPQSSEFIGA
Procedure, shortened: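 In-cell Western read-out: fixed A431 cells were co-stained for total EGFR and phospho-EGFR (Tyr1173; some runs Tyr1045). Before fixation, cells were serum-starved for 2 h, exposed to compound for 4 h, then given EGF for 10 min, usually at 10 ng/ml final (6.6 or 12.5 ng/ml in some runs).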

MDBK line = test: MTT Cell Proliferation Assay, MDBK cells; format: cell-based, bovine; details: second value of 'a/b (c)', taken as MDBK cells; for IC50: read-out: MTT Screen, second value of cell
Procedure, shortened: (§1)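 Each concentration ran in quadruplicate across duplicate plates, with compounds serially diluted in DMSO and delivered at 0.5% DMSO in 0.5% FBS medium for 3 days.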

[1] = test system: epithelial carcinoma A431 cell line; test: MTT Cell Proliferation Assay, A431 cells; format: cell-based; details: taken as A431 cells; for IC50: read-out: MTT Screen, first value of cell
Procedure, shortened: as §1

[2] = Homo sapiens, A-431, first value of 'a/b (c)'

Row | Compound | ICW Screen (ICW Inhibition) (EGFR) | IC50 (MDBK line; Bos taurus, MDBK) | IC50 [1, 2] | IC50 (MDBK line) | IC50 ([1]; first value of 'a/b (c)') | MTT Screen, second value of cell (MDBK line) | MTT Screen, first value of cell ([1]; first value of 'a/b (c)')
1 | Cc1ccc(NS(=O)(=O)c2ccc(NC(=S)NC(=O)CC(C)C)cc2)c(C)c1 [AD4-12010] | 33.772 | 6.16 µM | 6.68 µM | – | – | – | –
2 | C=CCN(CC=C)S(=O)(=O)c1ccc(NC(=S)NC(=O)/C=C/c2ccc(OC)cc2)cc1 [AD4-12016] | 34.399 | 23.5 µM | 15.8 µM | – | – | – | –
3 | Cc1cc(C)cc(NS(=O)(=O)c2ccc(NC(=S)NC(=O)CC(C)C)cc2)c1 [AD4-12017] | 27.373 | 5.93 µM | 6.53 µM | – | – | – | –
4 | Cc1ccc(NS(=O)(=O)c2ccc(NC(=S)NC(=O)CC(C)C)cc2)cc1C [AD4-12024] | 31.244 | 6.34 µM | 6.77 µM | – | – | – | –
5 | CCC(c1ccccc1)S(=O)(=O)c1ccc(NC(=S)NC(=O)C(C)C)cc1 (stereo not shown) [AD4-12029] | 30.376 | 51.1 µM | 25.3 µM | – | – | – | –
6 | COc1ccc(NS(=O)(=O)c2ccc(NC(=S)NC(=O)CC(C)C)cc2)cc1 [AD4-12040] | 47.822 | 14.8 µM | 17.1 µM | – | – | – | –
7 | CC(C)CC(=O)NC(=S)Nc1ccc(S(=O)(=O)NC2CCCCC2)cc1 [AD4-12041] | 43.515 | 14.3 µM | 6.61 µM | – | – | – | –
8 | O=C(NC(=S)Nc1ccc(S(=O)(=O)Nc2ccccc2)cc1)C1CCC1 [AD4-12044] | 34.334 | 33.1 µM | 63.2 µM | – | – | – | –
9 | CCN(CC)S(=O)(=O)c1ccc(NC(=S)NC(=O)CC(C)C)cc1 [AD4-12049] | 36.966 | 12 µM | 32.3 µM | – | – | – | –
10 | CN1CCN(S(=O)(=O)c2ccc(NC(=S)NC(=O)/C=C/c3ccccc3Cl)cc2)CC1 [AD4-12059] | 28.33 | 37.7 µM | 32.2 µM | – | – | – | –
11 | CN1CCN(S(=O)(=O)c2ccc(NC(=S)NC(=O)/C=C/c3cccs3)cc2)CC1 [AD4-12060] | 34.272 | 40.5 µM | 48.5 µM | – | – | – | –
12 | Cc1ccc(NS(=O)(=O)c2ccc(NC(=S)NC(=O)C(C)C)cc2)c(C)c1 [AD4-12062] | 34.268 | 18.8 µM | 64.5 µM | – | – | – | –
13 | O=C(NC(=S)Nc1ccc(S(=O)(=O)N2CCCCC2)cc1)C1CCC1 [AD4-12064] | 34.778 | – | – | 42.7 µM | 47.8 µM | – | –
14 | Cc1ccccc1OCC(=O)NC(=S)Nc1ccc(S(=O)(=O)NC2CCCCC2)cc1 [AD4-12073] | 29.313 | 32.3 µM | 19.5 µM | 17 µM | 11.6 µM | – | –
15 | O=C(Cc1ccccc1)NC(=S)Nc1ccc(S(=O)(=O)Nc2ccccc2)cc1 [AD4-12074] | 29.545 | – | 16.2 µM | 32.3 µM | – | – | –
16 | O=C(COc1ccc(Cl)cc1Cl)NC(=S)Nc1ccc(S(=O)(=O)NC2CCCCC2)cc1 [AD4-12075] | 25.956 | 40.1 µM | 19.2 µM | – | – | – | –
17 | Cc1ccc(NS(=O)(=O)c2ccc(NC(=S)NC(=O)C3CC3)cc2)c(C)c1 [AD4-12097] | 48.543 | 9.85 µM | 15.1 µM | – | – | – | –
18 | O=C(NC(=S)Nc1ccc(S(=O)(=O)Nc2ccccc2)cc1)C1CC1 [AD4-12098] | 25.946 | 16.4 µM | 23.4 µM | – | – | – | –
19 | O=C(NC(=S)Nc1ccc(S(=O)(=O)N2CCCCCC2)cc1)C1CCC1 [AD4-12104] | 41.204 | 37.6 µM | 39 µM | – | – | – | –

Row | Compound | ICW Screen (ICW Inhibition) (EGFR) | IC50 (MDBK line; Bos taurus, MDBK) | IC50 [1, 2] | IC50 (MDBK line) | IC50 ([1]; first value of 'a/b (c)') | MTT Screen, second value of cell (MDBK line) | MTT Screen, first value of cell ([1]; first value of 'a/b (c)')
20 | CN1CCN(S(=O)(=O)c2ccc(NC(=S)NC(=O)/C=C/c3ccc(F)cc3)cc2)CC1 [AD4-12107] | 41.933 | – | 14.1 µM | – | – | non- conver- gent | –
21 | COc1ccc(NS(=O)(=O)c2ccc(NC(=S)NC(=O)C3CCCC3)cc2)cc1 [AD4-12119] | 55.94 | 14.6 µM | 18.6 µM | – | – | – | –
22 | COc1cc(NS(=O)(=O)c2ccc(NC(=S)NC(=O)/C=C/c3ccccc3)cc2)nc(OC)n1 [AD4-12122] | 35.068 | 40.3 µM | – | – | – | – | non- conver- gent
23 | CN(Cc1ccccc1)S(=O)(=O)c1ccc(NC(=S)NC(=O)/C=C/c2ccccc2)cc1 [AD4-12126] | 37.795 | 41.9 µM | 14.9 µM | – | – | – | –
24 | Cc1cc(C)cc(NS(=O)(=O)c2ccc(NC(=S)NC(=O)CCc3ccccc3)cc2)c1 [AD4-12139] | 41.23 | 5.3 µM | 18.6 µM | – | – | – | –
25 | CN1CCN(S(=O)(=O)c2ccc(NC(=S)NC(=O)/C=C/c3ccccc3)cc2)CC1 [AD4-12145] | 30.469 | 41.8 µM | 40.5 µM | – | – | – | –
26 | CC1CCC(S(=O)(=O)c2ccc(NC(=S)NC(=O)C3CC3)cc2)CC1 (stereo not shown) [AD4-12146] | 40.916 | 25.8 µM | 26.6 µM | – | – | – | –
27 | COc1ccccc1/C=C/C(=O)NC(=S)Nc1ccc(S(=O)(=O)Nc2nc(C)cc(C)n2)cc1 [AD4-12148] | 51.845 | 39.2 µM | 42.8 µM | – | – | – | –
28 | COc1ccc(NS(=O)(=O)c2ccc(NC(=S)NC(=O)CCC(=O)OCCc3ccccc3)cc2)cc1 [AD4-12149] | 33.331 | 36.2 µM | 21.9 µM | – | – | – | –
29 | Cc1ccc(NS(=O)(=O)c2ccc(NC(=S)NC(=O)COc3ccc(Cl)cc3C)cc2)c(C)c1 [AD4-12152] | 50.528 | 16.2 µM | 21 µM | – | – | – | –
30 | CC1CCN(S(=O)(=O)c2ccc(NC(=S)NC(=O)CCC(=O)OCCc3ccccc3)cc2)CC1 [AD4-12153] | 31.36 | 21.8 µM | 15.6 µM | – | – | – | –
31 | Cc1cc(C)nc(NS(=O)(=O)c2ccc(NC(=S)NC(=O)COc3ccc(Br)cc3Cl)cc2)n1 [AD4-12158] | 36.727 | 4.58 µM | 5.01 µM | – | – | – | –
32 | COc1ccc(OCC(=O)NC(=S)Nc2ccc(S(=O)(=O)Nc3cc(C)cc(C)c3)cc2)cc1 [AD4-12165] | 36.632 | 12 µM | – | – | 63.6 µM | – | –
33 | CN(c1ccccc1)S(=O)(=O)c1ccc(NC(=S)NC(=O)/C=C/c2ccccc2)cc1 [AD4-12168] | 28.819 | 19.7 µM | 60.5 µM | – | – | – | non- conver- gent
34 | O=C(NC(=S)Nc1ccc(S(=O)(=O)NC2CCCCC2)cc1)C1CC1 [AD4-12171] | 37.375 | 37.1 µM | 38.9 µM | – | – | – | –
35 | Cc1cc(NS(=O)(=O)c2ccc(NC(=S)NC(=O)/C=C/c3ccccc3)cc2)no1 [AD4-12173] | 35.393 | – | 37.3 µM | 106 µM and 54 µM | 55.8 µM | – | –
36 | Cc1ccc(NS(=O)(=O)c2ccc(NC(=S)NC(=O)C3CCC3)cc2)cc1C [AD4-12175] | 42.36 | – | – | 9.56 µM | 40 µM | – | –
37 | CCCC(=O)NC(=S)Nc1ccc(S(=O)(=O)Nc2ccc(OCC)cc2)cc1 [AD4-12183] | 37.695 | 17.2 µM | 25.6 µM | – | – | – | –
38 | COc1ccc(NS(=O)(=O)c2ccc(NC(=S)NC(=O)COc3ccc(Cl)cc3C)cc2)cc1 [AD4-12196] | 34.379 | 36.8 µM | 18 µM | – | – | – | –
